According to US20030013638A1, “P27 prevents cellular migration” (priority 2001, published 2003):
pIC50: −log10 of the molar value. One block for each molecule: values may come before it.

Key:
[1] = system: aortic SMC of wild type C57BL/6 mice; assay: Aortic SMC explant migration after in vivo treatment; set-up: species or system mouse
Experimental: (§1) Aortic SMC explant migration: Wild type C57BL/6 mice were purchased from Jackson Laboratory (Bar Harbor, Me.). The p27 (+/−) and p27 (−/−) knockout mice were kindly provided by Dr. Andrew Koff of Memorial Sloan-Kettering Cancer Institute (Kiyokawa et al., 1996). […] The control group was treated with vehicle alone (0.2% sodium CMC, polysorbate 0.25%; Sigma, St. Louis, Mo.). At the conclusion of the treatment protocol, the mice were euthanized with 100 mg/kg of pentobarbital, the aortas excised and the adventitia and surrounding connective tissue were removed. The aortas were then opened by a longitudinal cut and the intima, as well as a thin portion of the subjacent media, were removed. The media were divided into 2 mm×2 mm pieces and placed in 6 well tissue culture plates (35 mm, 22.6 mm diameter, Costar, Cambridge, Mass.) containing DMEM with 20% FBS. The culture media was changed every other day. The migration of SMC out of the explant was observed under the microscope daily following explant. The total number of cells explanted was determined for each animal's explants on a daily basis. The results in FIG. 5 are presented as the mean percentage (±SD) of inhibition of migration (by rapamycin or taxol) as compared to control (untreated) for at least 4 animals from each group. The SMC phenotype was confirmed as previously described (Spector et al., 1997).

[2] = system: aortic SMC of p27 (−/−) knockout mice; assay: as above; set-up: species or system mouse; settings: 20 mg/kg/day for 7 days
Experimental: as §1

wild type murine SMC = assay: SMC migration assay, modified Boyden chamber, bFGF-induced; type: cell-based, mouse
Experimental: (§2) Cell Culture: The murine aortic SMCs were obtained from the explant migration experiments described below, and were subcultured in DMEM containing 20% fetal bovine serum (FBS) at 37° C. in a humidified 95% air-5% CO2 atmosphere (Kobayashi et al., 1993). The growth medium was changed every other day until 80% confluence was reached. The cells used for experiments were from passages #3-6. Verification of SMC phenotype was determined by positive fluorescent staining for α-actin and negative staining for Factor VIII antigen. Cell viability was 95% or greater as determined by trypan blue exclusion at the conclusion of each experiment.
SMC migration assay: Migration was measured using a 48 well modified Boyden chamber housing a polycarbonate filter with 8 μm pores as described previously (Bornfeldt et al., 1994; Poon et al., 1996). Each membrane was coated with 0.1 mg/ml of collagen in 0.2 M acetic acid for 24 hours before each assay. For each assay, 50 ng/ml of bFGF in DMEM was loaded in quadruplicate wells in the bottom chamber. BSA (0.2% in DMEM without bFGF) was used as a negative control. […] An equal number of cells (2×10^5/ml) in 50 μl was loaded to the top chamber of each well. After 6 hours, non-migrating cells were scraped from the upper surface of the filter. Cells on the lower surface were fixed with methanol and stained with Giemsa stain (Fisher Scientific, N.Y.) . The number of SMC on the lower surface of the filter was determined by counting four high power (X200) fields of constant area per well. Values are expressed as the percentage of cells migrating in response to bFGF after subtraction of the negative control (DMEM+BSA). Experiments were performed at least twice using quadruplicate wells.

p27 (−/−) SMC = assay: as above; type: cell-based, mouse
Experimental: as §2
SMC migration assay: Migration was measured using a 48 well modified Boyden chamber housing a polycarbonate filter with 8 μm pores as described previously (Bornfeldt et al., 1994; Poon et al., 1996). Each membrane was coated with 0.1 mg/ml of collagen in 0.2 M acetic acid for 24 hours before each assay. For each assay, 50 ng/ml of bFGF in DMEM was loaded in quadruplicate wells in the bottom chamber. BSA (0.2% in DMEM without bFGF) was used as a negative control. Rapamycin, FK506 or C3 exoenzyme was directly added to the growth medium for either 48 hours (rapamycin and FK506) or 16 hours (C3 exoenzyme) before the cells were trypsinized, and counted with a hemacytometer. An equal number of cells (2×10^5/ml) in 50 μl was loaded to the top chamber of each well. After 6 hours, non-migrating cells were scraped from the upper surface of the filter. Cells on the lower surface were fixed with methanol and stained with Giemsa stain (Fisher Scientific, N.Y.) . The number of SMC on the lower surface of the filter was determined by counting four high power (X200) fields of constant area per well. Values are expressed as the percentage of cells migrating in response to bFGF after subtraction of the negative control (DMEM+BSA). Experiments were performed at least twice using quadruplicate wells.

[3] = system: aortic SMC of p27 (+/−) mice; assay: Aortic SMC explant migration after in vivo treatment; set-up: species or system mouse; settings: 4 mg/kg/day for 5 days IP, p<0.05
Experimental: Aortic SMC explant migration: Wild type C57BL/6 mice were purchased from Jackson Laboratory (Bar Harbor, Me.). The p27 (+/−) and p27 (−/−) knockout mice were kindly provided by Dr. Andrew Koff of Memorial Sloan-Kettering Cancer Institute (Kiyokawa et al., 1996). The mice received one of three different treatment protocols (9 mg/kg/day for 7 days, 4 mg/kg/day for 5 days, or 2 mg/kg/day for 2 days) of rapamycin via intraperitoneal (IP) injection. The control group was treated with vehicle alone (0.2% sodium CMC, polysorbate 0.25%; Sigma, St. Louis, Mo.). At the conclusion of the treatment protocol, the mice were euthanized with 100 mg/kg of pentobarbital, the aortas excised and the adventitia and surrounding connective tissue were removed. The aortas were then opened by a longitudinal cut and the intima, as well as a thin portion of the subjacent media, were removed. The media were divided into 2 mm×2 mm pieces and placed in 6 well tissue culture plates (35 mm, 22.6 mm diameter, Costar, Cambridge, Mass.) containing DMEM with 20% FBS. The culture media was changed every other day. The migration of SMC out of the explant was observed under the microscope daily following explant. The total number of cells explanted was determined for each animal's explants on a daily basis. […]

[4] = system: SMC obtained from wild type and p27 (−/−) animals; assay: Cell viability (trypan blue exclusion) and morphology of SMC; type: cell-based, mouse
Experimental: as §2

SMILES: CC(=O)O[C@H]1C(=O)[C@@]2(C)[C@H]([C@H](OC(=O)c3ccccc3)[C@]3(O)C[C@H](OC(=O)[C@H](O)[C@@H](NC(=O)c4ccccc4)c4ccccc4)C(C)=C1C3(C)C)[C@]1(OC(C)=O)CO[C@@H]1C[C@@H]2O [taxol, paclitaxel]
inhibition of explant migration (FIG. 3C) ([1]; p27 (+/+), 20 mg/kg/day for 7 days): inhibited migration
difference in inhibition of explant migration between wild type and p27 (−/−) animals [2]: No differences
inhibition of explant migration (FIG. 3C) ([2]; p27 (−/−)): inhibited migration

SMILES: C=CC[C@@H]1/C=C(\C)C[C@H](C)C[C@H](OC)[C@H]2O[C@@](O)(C(=O)C(=O)N3CCCC[C@H]3C(=O)O[C@H](/C(C)=C/[C@@H]3CC[C@@H](O)[C@H](OC)C3)[C@H](C)[C@@H](O)CC1=O)[C@H](C)C[C@@H]2OC [FK506]
effect on murine SMC migration (FIG. 1A) (wild type murine SMC; wild type SMC, 48 hours): no effect
effect on murine SMC migration (FIG. 1B) (p27 (−/−) SMC; p27 (−/−) SMC, 48 hours): no effect

pIC50 (wild type murine SMC; Mus musculus, wild type murine SMC, treatment for 48 hours, read-out: IC50, inhibition of bFGF-induced SMC migration): ~8.70
pIC50 (p27 (−/−) SMC; Mus musculus, p27 (−/−) cells, treatment for 48 hours, read-out: IC50, inhibition of bFGF-induced SMC migration): ~6.70
increased IC50 in p27 (−/−) cells as compared to wild type SMC (p27 (−/−) SMC; p27 (−/−) vs wild type SMC): 100 fold
SMILES: CO[C@H]1C[C@@H]2CC[C@@H](C)[C@@](O)(O2)C(=O)C(=O)N2CCCC[C@H]2C(=O)O[C@H]([C@H](C)C[C@@H]2CC[C@@H](O)[C@H](OC)C2)CC(=O)[C@H](C)/C=C(\C)[C@@H](O)[C@@H](OC)C(=O)[C@H](C)C[C@H](C)/C=C/C=C/C=C/1C [rapamycin]
inhibition of explant migration as compared to untreated animals [3]: ~85%
effect on SMC migration of addition immediately prior to incubation (wild type murine SMC; added to upper or lower chamber immediately prior to incubation, genotype not stated): no effect
inhibition of explant migration as compared to untreated animals ([1]; wild type, 4 mg/kg/day for 5 days IP, p<0.05): ~85%
cell viability, treated vs untreated [4]: no differences
inhibition at 0.1 µM (p27 (−/−) SMC; Mus musculus, p27 (−/−) SMC, 100 nM, 48 hours): ~35%
inhibition of migration (p27 (−/−) SMC; p27 (−/−) SMC, 1 nM to 10 nM, 48 hours): no significant inhibition
